Measured values as given in patent publication US9447075B2, “Pyridazine derivatives as EAAT2 activators” (The Brigham and Women's Hospital, Inc., priority 2011, dated 2016).
Where two headings read alike, the source gives them in different places.

Assays:
[1] = In vivo pharmacokinetic evaluation in male C57Bl/6 mice (LCMS/MS); parameters: species or system mouse; details: ip, single i.p. 3 mg/kg; for half-life: estimated
Experimental: Compound 212320 is compliant with Lipinski rules and lacks functionality that would predict overt toxicity or reactivity. This compound has a low molecular weight (293.38), cLogP value (3.28) and polar surface area (PSA) value (37.08 Å2) in the range typical of compounds that can penetrate the blood brain barrier. We conducted in vivo pharmacokinetic evaluation of LDN 212320 in male C57Bl/6 mice. After a single intraperitoneal (i.p.) administration of Compound 212320 (3 mg/kg), the plasma and brain concentrations were determined over an 8 hr period by LCMS/MS (FIG. 8A). […] The plasma and brain half-lives were estimated to be 2.63 and 2.64 hr, respectively. The average brain-to-plasma ratio was approximately 2 at all time points tested.

CYP1A2 = molecular target: T1, CYP1A2 (Homo sapiens, UniProt P05177); test: In vitro side effect profiling: CYP1A2; type: in vitro ADME; details: duplicate, read-out: inhibition on cytochrome p450 CYP1A2
T1 sequence (P05177 1-516): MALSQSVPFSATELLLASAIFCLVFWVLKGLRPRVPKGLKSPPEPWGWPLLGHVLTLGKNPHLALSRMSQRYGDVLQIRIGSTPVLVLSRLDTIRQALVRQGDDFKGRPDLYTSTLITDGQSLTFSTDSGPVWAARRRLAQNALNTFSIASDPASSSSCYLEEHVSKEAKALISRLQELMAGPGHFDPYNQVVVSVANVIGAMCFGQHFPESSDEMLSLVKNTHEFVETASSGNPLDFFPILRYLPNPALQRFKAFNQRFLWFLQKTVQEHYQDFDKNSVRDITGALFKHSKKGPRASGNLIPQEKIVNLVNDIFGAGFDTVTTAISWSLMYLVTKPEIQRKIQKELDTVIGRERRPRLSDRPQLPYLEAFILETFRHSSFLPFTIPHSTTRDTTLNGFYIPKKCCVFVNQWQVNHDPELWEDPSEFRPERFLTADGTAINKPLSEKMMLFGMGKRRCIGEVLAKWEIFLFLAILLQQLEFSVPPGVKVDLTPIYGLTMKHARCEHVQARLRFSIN
Experimental: (§1) To assess Compound 212320's biological activity and selectivity, we performed an in vitro side effect profiling study. Seventy-one targets were tested at 10 μM in duplicate. These targets include neurotransmitter related receptors (30), steroids (2), ion channels (6), second messenger (1), prostaglandins (3), growth factors/hormones (4), brain/gut peptides (13), enzymes (5) and cytochrome p450 (7). […] Additionally, we performed a protein kinase profiling study. Compound 212320 was tested at 1 and 10 μM against 288 kinases. […] These studies indicate that Compound 212320 has high specificity and low side-effects/toxicity potential.

[2] = system: All other kinases (288 kinases tested); test: Protein kinase profiling: all other of 288 kinases; type: biochemical; details: 1 and 10 μM
Experimental: as §1

[3] = system: APPSw/Ind transgenic mice; test: Alzheimer's disease model, Y-maze test; type: in vivo, mouse; details: 40 mg/kg i.p. daily for 10 days, 7-month-old mice
Experimental: Compound 212320 was evaluated in APPSw/Ind transgenic mice, an Alzheimer's disease model. […] 7-month-old mice were treated with 40 mg/kg of Compound 212320 by intraperitoneal injection daily for 10 days and then evaluated the effects on short-term memory by Y-maze test. Compound 212320 restored short-term memory loss in APP mice after 10-day treatment (23 wild-type mice, 21 APP mice).
APPSw/Ind transgenic mice were treated with Compound 212320 at 40 mg/kg or vehicle intraperiotoneally beginning at 7 months after symptoms of memory loss are apparent. After daily treatment for 10 days, Y-maze was used to measure effects on short-term memory.

[4] = Maximum tolerated dose / tolerability study; type: in vivo; details: male, C57BL/6, mouse, in vivo, ip; five-day repeat-dose i.p., highest dose tested; read-out: 5-day no observed adverse effect level (NOAEL)
Experimental: (§2) We determined maximum tolerated dose (MTD) of Compound 212320 in male C57BL/6 mice. The study was conducted in two phases: (I) a single dose tolerability study tested at the doses of 10, 25, 50, and 75 mg/kg i.p. (3 mice/dose) and (II) a five-day repeat-dose tolerability study tested at the doses of 10, 25, 50, and 100 mg/kg i.p. (5 mice/dose). […] In the repeat-dose study, body weights were determined prior to each dose and prior to termination on day 6. Clinical pathologies including standard hematology, serum chemistry and coagulation parameters were evaluated on samples collected on day 6. All animals from phase II were necropsied, and selected organs were weighed. […] Due to lack of toxicity, the highest dose tested, 100 mg/kg/day, was determined to be the 5-day no observed adverse effect level (NOAEL) for Compound 212320.

male C57BL/6 mice = test: Maximum tolerated dose / tolerability study; type: in vivo; details: single dose 10-75 mg/kg and five-day repeat dose 10-100 mg/kg i.p.
Experimental: as §2

EAAT2 = test: Immunofluorescent staining of induced EAAT2 protein in PA-EAAT2 cells; type: cell-based, human; details: PA-EAAT2 cells (FIG. 6E)
Experimental: Characterization and efficacy studies of a compound, Compound 212320 (FIG. 6A) is shown. […] In the absence of serum, PA-EAAT2 cells express low amounts of EAAT2 protein, although the recombinant EAAT2 mRNA are expressed (translational silencing); however, EAAT2 protein levels are increased when an activator is added to the culture (translational activation). This cell line was used for high-throughput screening to identify EAAT2 translational activators. To prioritize candidate compounds, we initially evaluated activation of EAAT2 protein in PA-EAAT2 cells. Promising compounds were further evaluated in primary dissociated neuron and astrocyte mixed cultures and then in mice. FIG. 6 presents the characterization of Compound 212320 in PA-EAAT2 cells. Compound 212320 increased EAAT2 protein levels in a dose—(FIG. 6B) and time—(FIG. 6C) dependent manner. Importantly, the induction occurred in a short amount of time (within 1-2 hr) and was sustained even up to 72 hr (data not show). Additionally, induction occurred at low nanomolar concentrations. […] (FIG. 6D).

[5] = system: All other targets (seventy-one targets tested); test: In vitro side effect profiling: all other of seventy-one targets; details: 10 μM, duplicate
Experimental: as §1

Cc1ccccc1CSc1ccc(-c2ccccn2)nn1 [Compound 7-4]
Kp ([1]; male, C57Bl/6, mouse, brain, all time points tested, read-out: average brain-to-plasma ratio): ~2 | half-life ([1]; male, C57Bl/6, mouse, brain, read-out: Brain half-life (converted)): 2.64 h | half-life ([1]; male, C57Bl/6, mouse, plasma, read-out: Plasma half-life (converted)): 2.63 h | Cmax ([1]; mouse, in vivo, male C57Bl/6 mice): 42.1 ± 3.6 ng/mL | inhibition at 10 µM (CYP1A2): 69% | Activity on all other kinases tested [2]: insignificant activity | Short-term memory loss (Y-maze test) [3]: restored | NOAEL at 5 day [4]: 100 mg/kg/day | Clinical signs of toxicity, clinical pathology, body weight (male C57BL/6 mice): no clinical signs of toxicity | Localization of induced EAAT2 protein (EAAT2): properly localized to the plasma membrane | inhibition, all other targets [5]: < 30%
